Activity calls are given as the source filed them. No cut-off for these calls is given here.
What was measured:
Mus musculus [1] = assay: Anti-colitis activity against DSS-induced ulcerative colitis C57BL/6 mouse model assessed as amelioration of epithelial change score by measuring hyperplasia in colon at 10 to 20 mg/kg, po administered once a day for 10 days by H&E staining based histopathological analysis; format: functional, organism-based; details: dose 10-20 mg/kg, time 10.0 day
[2] = Unbound drug concentration in rat plasma at 21.67 ug/ml of total concentration measured after 12 hrs by ultrafiltration based HPLC analysis; format: ADME, cell-free; details: dose 21.67 µg/ml
Mus musculus [3] = assay: Anti-colitis activity against DSS-induced ulcerative colitis C57BL/6 mouse model assessed as amelioration of epithelial change score by measuring crypt abscesses in colon at 10 to 20 mg/kg, po administered once a day for 10 days by H&E staining based histopathological analysis; format: functional, organism-based; details: dose 10-20 mg/kg, time 10.0 day
[4] = molecular target: T1, Aryl hydrocarbon receptor (Mus musculus, UniProt P30561); assay: Activation of AhR transcription in C57BL/6 mouse naive T cells assessed as increase in CYP1B1 mRNA expression at 1 to 3 uM by qRT-PCR analysis; format: cell-based; details: t cell, dose 1-3 µM
T1 sequence (P30561 whole entry): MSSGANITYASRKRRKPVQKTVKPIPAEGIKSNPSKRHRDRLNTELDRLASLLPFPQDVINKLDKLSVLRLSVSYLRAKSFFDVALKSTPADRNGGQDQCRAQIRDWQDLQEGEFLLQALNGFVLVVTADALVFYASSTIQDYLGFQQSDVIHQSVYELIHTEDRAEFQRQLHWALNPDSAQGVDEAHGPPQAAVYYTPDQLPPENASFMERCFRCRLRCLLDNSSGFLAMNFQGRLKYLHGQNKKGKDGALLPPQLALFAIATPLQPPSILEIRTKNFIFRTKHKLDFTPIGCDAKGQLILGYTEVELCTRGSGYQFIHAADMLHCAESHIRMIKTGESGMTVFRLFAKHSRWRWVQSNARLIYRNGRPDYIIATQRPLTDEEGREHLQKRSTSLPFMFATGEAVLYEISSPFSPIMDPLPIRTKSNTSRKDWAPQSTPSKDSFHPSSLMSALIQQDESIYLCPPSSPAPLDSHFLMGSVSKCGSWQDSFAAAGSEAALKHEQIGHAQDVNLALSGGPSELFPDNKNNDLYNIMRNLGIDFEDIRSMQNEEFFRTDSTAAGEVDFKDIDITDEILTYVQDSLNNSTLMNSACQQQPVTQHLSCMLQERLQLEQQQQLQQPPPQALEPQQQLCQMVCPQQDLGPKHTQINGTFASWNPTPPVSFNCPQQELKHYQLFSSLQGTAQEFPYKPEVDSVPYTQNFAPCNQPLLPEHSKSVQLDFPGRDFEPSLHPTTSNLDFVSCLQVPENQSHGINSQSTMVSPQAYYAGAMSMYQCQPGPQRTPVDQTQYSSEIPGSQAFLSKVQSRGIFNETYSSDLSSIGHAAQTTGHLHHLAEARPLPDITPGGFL

EL4 = assay: Cytotoxicity against mouse EL4 cells assessed as inhibition of cell proliferation incubated for 72 hrs by MTT assay; format: functional, cell-based; details: EL4, 72 h
[5] = Cmax in Sprague-Dawley rat at 30 mg/kg, po measured at 120 min by LC-MS/MS analysis; format: ADME, organism-based; design: dose 30 mg/kg, time 120 min, route po; details: in vivo
[6] = Apparent oral clearance in Sprague-Dawley rat at 3 mg/kg, iv measured upto 1440 min by LC-MS/MS analysis; format: ADME, organism-based; details: in vivo, 24 h
[7] = Protein binding in rat plasma at 37.38 ug/ml of total concentration measured after 12 hrs by ultrafiltration based HPLC analysis; format: ADME, cell-free; details: at 37.38 µg/mL, read-out: PPB (converted)
Mus musculus [8] = assay: Anti-colitis activity against DSS-induced ulcerative colitis C57BL/6 mouse model assessed as amelioration of epithelial change score by measuring erosion in colon at 10 to 20 mg/kg, po administered once a day for 10 days by H&E staining based histopathological analysis; format: functional, organism-based; details: dose 10-20 mg/kg, time 10.0 day
[9] = molecular target: T1, Aryl hydrocarbon receptor; assay: Activation of AhR transcription in C57BL/6 mouse naive T cells assessed as increase in CYP1A1 mRNA expression by measuring fold change at 3 uM by qRT-PCR analysis relative to control; format: cell-based; details: T-cell, read-out: FC
Mus musculus [10] = assay: Anti-colitis activity against DSS-induced ulcerative colitis C57BL/6 mouse model assessed as increase in Foxp3 mRNA level by measuring fold change at 10 mg/kg, po administered once a day for 10 days by qRT-PCR analysis; format: functional; details: time 10 day
Mus musculus [11] = assay: Anti-colitis activity against DSS-induced ulcerative colitis C57BL/6 mouse model assessed as amelioration of epithelial change score by measuring loss of goblet cells in colon at 10 to 20 mg/kg, po administered once a day for 10 days by H&E staining based histopathological analysis; format: functional, organism-based; details: dose 10-20 mg/kg, time 10.0 day
[12] = Protein binding in rat plasma at 20.13 ug/ml of total concentration measured after 12 hrs by ultrafiltration based HPLC analysis; format: ADME, cell-free; details: at 20.13 µg/mL, read-out: PPB
[13] = Cmax in Sprague-Dawley rat at 3 mg/kg, iv measured at 120 min by LC-MS/MS analysis; format: ADME, organism-based; design: time 120 min, dose 3 mg/kg, route iv; details: in vivo
Mus musculus [14] = assay: Anti-colitis activity in DSS-induced ulcerative colitis C57BL/6 mouse model assessed as increase in CD4+CD25+Foxp3+ Treg cell ratio in mesenteric lymph nodes at 10 mg/kg, po administered once a day for 10 days by flow cytometric analysis (reference value: 4.5 %); format: functional; details: time 10 day
[15] = Tmax in Sprague-Dawley rat at 30 mg/kg, po measured upto 1440 min by LC-MS/MS analysis; format: ADME, organism-based; details: in vivo
[16] = Oral bioavailability in Sprague-Dawley rat at 30 mg/kg measured upto 1440 min by LC-MS/MS analysis; format: ADME, organism-based; details: in vivo
Mus musculus [17] = assay: Anti-colitis activity in DSS-induced ulcerative colitis C57BL/6 mouse model assessed as CD4+CD25+Foxp3+ Treg cell percentage in spleen at 10 mg/kg, po administered once a day for 10 days by flow cytometric analysis (reference value: 3.3%); format: functional; details: time 10 day
Mus musculus [18] = assay: Anti-colitis activity against DSS-induced ulcerative colitis C57BL/6 mouse model assessed as increase in IL-10 mRNA level by measuring fold change at 10 mg/kg, po administered once a day for 10 days by qRT-PCR analysis; format: functional; details: time 10 day
Mus musculus [19] = assay: Anti-colitis activity against DSS-induced ulcerative colitis C57BL/6 mouse model assessed as increase in IL-10 mRNA level at 20 mg/kg, po administered once a day for 10 days by qRT-PCR analysis; format: functional, organism-based; details: time 10.0 day
[20] = Apparent oral clearance in Sprague-Dawley rat at 30 mg/kg measured upto 1440 min by LC-MS/MS analysis; format: ADME, organism-based; details: in vivo, 24 h
[21] = Upregulation of GATA3 expression level in DSS-induced ulcerative colitis C57BL/6 mouse model assessed as fold change at 20 mg/kg, po administered once a day for 10 days by qRT-PCR analysis; format: functional; details: time 10 day
[22] = Half-life in Sprague-Dawley rat at 30 mg/kg, po measured upto 1440 min by LC-MS/MS analysis; format: ADME, organism-based; details: in vivo
[23] = molecular target: T1, Aryl hydrocarbon receptor; assay: Activation of AhR transcription in C57BL/6 mouse naive T cells assessed as increase in UGT1A1 mRNA expression at 1 to 3 uM by qRT-PCR analysis; format: cell-based; details: t cell, dose 1-3 µM

SMILES: COc1cc2c3c(c1)-c1ccc(O)cc1CC3NCC2 (centres undefined)
- Activity (Mus musculus [1]): Active
- Cp(f) [2]: 3230 ng/mL
- Activity (Mus musculus [3]): Active
- Activity [4]: Active
- IC50 (EL4): 28 µM
- Cmax [5]: 789 ng/mL
- CL/F [6]: 0.01 mg/(ng/ml)/min
- fraction unbound at 12 h, 37.38 ug/ml [7]: 0.491
- Activity (Mus musculus [8]): Active
- fold induction at 3 µM [9]: 4.6
- fold change (FC) (Mus musculus [10]): 1.88
- Activity (Mus musculus [11]): Active
- fraction unbound at 12 h, 20.13 ug/ml [12]: 0.498
- Cmax [13]: 396 ng/mL
- Activity (Mus musculus [14]): 7.4%
- Tmax [15]: 2 h
- bioavailability [16]: 87.4%
- Activity (Mus musculus [17]): 3.2%
- fold change (FC) (Mus musculus [18]): 1.26
- Activity (Mus musculus [19]): Active
- CL/F [20]: 0 mg/(ng/ml)/min
- fold change (FC) [21]: 1.14
- half-life [22]: 2.69 h
- Activity [23]: Active
